The source of these data is patent US5962447A, “Benzoxazines for enhancing synaptic response” (The Regents of the University of California, priority 1998, dated 1999).

The subject of one experiment is AMPA receptors. As to the kind of experiment: In vitro physiological testing: field EPSPs in rat hippocampal slices (CA1). Format: cell-based, rat (Sprague-Dawley). To be noted: for in vitro enhancement by rotational restriction vs. corresponding rotomer: figure: +50% half-width, vs. substituted benzoyl piperidine rotomers; for +25% Amplitude (estimated concentration required to increase the amplitude of the EPSP to 25% above baseline) / +50% Half-Width (estimated concentration required to increase the width of the EPSP at half-height by 50%): rat hippocampal slice, 35° C., about 15 min perfusion, estimated by interpolation in most cases, extrapolation for others. The protocol:
In Vitro Physiological Testing
The physiological effects of the compounds of this invention were determined in vitro with slices of rat hippocampus by measuring excitatory responses (field EPSPs) in hippocampal slices maintained in a recording chamber continuously perfused with artificial cerebrospinal fluid (ACSF). During a 15-30 minute interval, the perfusion medium was switched to one containing various concentrations of the test compounds. Responses collected immediately before and at the end of drug perfusion were superimposed in order to calculate both the percent increase in EPSP amplitude and percent increase in the width of the response at one-half the peak height (half-width).
To conduct these tests, the hippocampus was removed from anesthetized, 2 month old Sprague-Dawley rats, and in vitro slices (400 micrometers thick) were prepared and maintained in an interface chamber at 35° C. using conventional techniques. this is the procedure used by Dunwiddie and Lynch, J. Physiol. […] A bipolar nichrome stimulating electrode was positioned in the dendritic layer (stratum radiatum) of the hippocampal subfield CA1 close to the border of subfield CA3.
Current pulses (0.1 msec) through the stimulating electrode activated a population of the Schaffer-commissural (SC) fibers which arise from neurons in the subdivision CA3 and terminate in synapses on the dendrites of CA1 neurons. Activation of these synapses causes them to release the transmitter glutamate. Glutamate binds to the post-synaptic AMPA receptors which then transiently open an associated ion channel and permit a sodium current to enter the postsynaptic cell. This current results in a voltage in the extracellular space (the field excitatory post-synaptic potential or field "EPSP") which is recorded by a high impedance recording electrode positioned in the middle of the stratum radiatum of CA1.
For the experiments summarized in the table below, the intensity of the stimulation current was adjusted to produce half-maximal EPSPs (typically about 1.5-2.0 mV). Paired stimulation pulses were given every 40 seconds with an interpulse interval of 200 msec. The field EPSPs of the second response were digitized and analyzed to determine amplitude, half-width, and response area. If the responses were stable for 15-30 minutes (baseline), test compounds were added to the perfusion lines for a period of about 15 minutes. The perfusion was then changed back to regular ACSF.
Paired-pulse stimulation was used since stimulation of the SC fibers in part activates interneurons which generate an inhibitory postsynaptic potential (IPSP) in the pyramidal cells of CA1. This feed-forward IPSP typically sets in after the EPSP reaches its peak. The feed-forward IPSP accelerates the repolarization and shortens the decay phase of the EPSP, and thus could partially mask the effects of the test compounds. One of the relevant features of the feed-forward IPSP is that it cannot be reactivated for several hundred milliseconds following a stimulation pulse. This phenomenon can be employed to advantage to eliminate IPSP by delivering paired pulses separated by 200 milliseconds and using the second ("primed") response for data analysis.
The compounds of the invention were assayed in the physiological test system described above for the generation of data presented in the table below. […] Values have been estimated by interpolation in most cases, but by extrapolation from determined values for others.

Experiment [1] in a line: Enhancing memory in rats, 8-arm radial maze learning paradigm. To be noted: for minimal effective dose: Rattus norvegicus, rats, read-out: Behavioral Dose (threshold dose for enhancing memory); for in vivo enhancement by rotational restriction vs. corresponding rotomer: figure: threshold dose. Format: in vivo, rat.
The test system of the next experiment is AMPA receptor. As to the kind of experiment: In vitro hippocampal patch preparation, effect on AMPA receptor function. Format: cell-based. To be noted: Chiralpak AD, hexane/50% isopropanol. How it is done:
This isomer was determined to be the (+)-enantiomer.

For experiment [2] the following is noted: metabolite of aniracetam; cited from earlier work.

Some results are limits rather than exact numbers.

For the molecule `O=C1c2cc3c(cc2OC2CCCN12)OCO3` (racemic) [Compound I, (R,S)-1,3-Dioxolo[4,5-g]-2,3-dihydro-1H-pyrrolo[2,1-b][1,3]benzoxazine-10(3aH)-one], in the experiment with AMPA receptors, the “in vitro enhancement by rotational restriction vs. corresponding rotomer” value is listed as “marked enhancement”, the “+25% Amplitude (estimated concentration required to increase the amplitude of the EPSP to 25% above baseline)” value is given as 0.1 mM and the “+50% Half-Width (estimated concentration required to increase the width of the EPSP at half-height by 50%)” value is on record as 0.05 mM. In experiment [1], the minimal effective dose came to 1 mg/kg and the “in vivo enhancement by rotational restriction vs. corresponding rotomer” value is “marked enhancement”.

In the case of `O=C1c2cc3c(cc2OC2CCCCN12)OCO3` (racemic) [Compound II, (R,S)-1,3-Dioxolo[4,5-g]-1,2,3,4-tetrahydropyrido[2,1-b][1,3]benzoxazine-11(4aH)-one], in the experiment on AMPA receptors, the “+25% Amplitude (estimated concentration required to increase the amplitude of the EPSP to 25% above baseline)” value is listed as 0.3 mM and the “+50% Half-Width (estimated concentration required to increase the width of the EPSP at half-height by 50%)” value is 0.2 mM.

Regarding `O=C1c2cc3c(cc2OC2CCCN12)OCCO3` (racemic) [Compound III, (R,S)-1,4-Dioxan[2,3-g]-2,3-dihydro-1H-pyrrolo[2,1-b][1,3]benzoxazine-11(3aH)-one], in the experiment on AMPA receptors, the “in vitro enhancement by rotational restriction vs. corresponding rotomer” value was “marked enhancement”, the “+25% Amplitude (estimated concentration required to increase the amplitude of the EPSP to 25% above baseline)” value is reported as greater than 0.03 mM and the “+50% Half-Width (estimated concentration required to increase the width of the EPSP at half-height by 50%)” value is given as 0.02 mM. Besides, in experiment [1], the “potency in the behavioral task vs. corresponding rotomer and other ampakines of WO 94/02475” value was “ten times more potent”; the minimal effective dose was 0.1 mg/kg; the “in vivo enhancement by rotational restriction vs. corresponding rotomer” value is “marked enhancement”.

`COc1ccc2c(c1)OC1CCCN1C2=O` (racemic) [Compound IV, (R,S)-6-Methoxy-2,3-dihydro-1H-pyrrolo[2,1-b][1,3]benzoxazine-9(3aH)-one]: in the experiment on AMPA receptors, the “+25% Amplitude (estimated concentration required to increase the amplitude of the EPSP to 25% above baseline)” value was greater than 1 mM and the “+50% Half-Width (estimated concentration required to increase the width of the EPSP at half-height by 50%)” value was 0.4 mM.

`COc1ccc2c(c1)C(=O)N1CCCC1O2` (racemic) [Compound V, (R,S)-7-Methoxy-2,3-dihydro-1H-pyrrolo[2,1-b][1,3]benzoxazine-9(3aH)-one]: in the experiment with AMPA receptors, the “+25% Amplitude (estimated concentration required to increase the amplitude of the EPSP to 25% above baseline)” value is 1 mM and the “+50% Half-Width (estimated concentration required to increase the width of the EPSP at half-height by 50%)” value was 0.25 mM.

With `O=C1c2cc3nccnc3cc2OC2CCCN12` (racemic) [Compound VI, (R,S)-Pyrazino[2,3-g]-2,3-dihydro-1H-pyrrolo[2,1-b][1,3]benzoxazine-11(3aH)-one], in the experiment on AMPA receptors, the “in vitro enhancement by rotational restriction vs. corresponding rotomer” value is “marked enhancement”, the “+25% Amplitude (estimated concentration required to increase the amplitude of the EPSP to 25% above baseline)” value is on record as 0.1 mM and the “+50% Half-Width (estimated concentration required to increase the width of the EPSP at half-height by 50%)” value is recorded as 0.1 mM. Besides, in experiment [1], the minimal effective dose was determined as 2 mg/kg and the “in vivo enhancement by rotational restriction vs. corresponding rotomer” value is “marked enhancement”.

For `O=C1c2cc3nccnc3cc2OC2CCCCN12` (racemic) [Compound VII, (R,S)-Pyrazino[2,3-g]-1,2,3,4-tetrahydropyrido[2,1-b] [1,3] benzoxazine-12(4aH)-one], in the experiment with AMPA receptors, the “+25% Amplitude (estimated concentration required to increase the amplitude of the EPSP to 25% above baseline)” value is reported as 0.4 mM and the “+50% Half-Width (estimated concentration required to increase the width of the EPSP at half-height by 50%)” value is recorded as 0.3 mM.

In the case of `COc1ccc2c(c1)C(=O)N1CCCC1(C)O2` (racemic) [Compound VIII, (R,S)-7-Methoxy-3a-methyl-2,3-dihydro-1H-pyrrolo[2,1-b][1,3]benzoxazine-9-one], in the experiment on AMPA receptors, the “+25% Amplitude (estimated concentration required to increase the amplitude of the EPSP to 25% above baseline)” value is given as greater than 0.3 mM and the “+50% Half-Width (estimated concentration required to increase the width of the EPSP at half-height by 50%)” value is 0.4 mM.

Take `O=C1c2cc3c(cc2OC2CCCN12)OCO3` (single isomer, unassigned) [first eluting enantiomer]: the “activity of first eluting enantiomer relative to second eluting enantiomer (effect on EPSP)” value in the experiment on AMPA receptors (Chiralcel OD, hexane/10% isopropanol, in vitro hippocampal slice) is on record as “at least 10 -fold”.

`O=C1c2cc3c(cc2OC2CCCN12)OCCO3` (single isomer, unassigned) [second eluting enantiomer]: in the experiment on AMPA receptor, the “activity of second eluting enantiomer relative to first eluting enantiomer (effect on AMPA receptor function)” value is recorded as “at least 10 -fold”.

Regarding `COc1ccc(C(=O)NCCCC(=O)O)cc1` [anisoyl-GABA], in experiment [2], the aniracetam-like effects entry was “no aniracetam-like effects”.
